System: HT29 tumors
Assay: HT29 tumor growth retardation after photodynamic therapy (Kaplan-Meier)
Type: in vivo, mice
Details: photodynamic therapy with laser activation
Text: FIG. 8 illustrates Kaplan-Meier diagrams of HT29 tumor growth retardation after treatment with free mTHPC; the liposomal formulation of mTHPC (mTHPC Liposome) and mTHPC vesicles with laser activation of the drug (photodynamic therapy), compared to the same groups without laser activation (control, dotted lines).
FIG. 8 illustrates Kaplan-Meier diagrams of tumor growth retardation HT29 after treatment with free mTHPC; the liposomal formulation of mTHPC and mTHPC-EVs with laser activation of the drug (photodynamic therapy, three-dimensional therapies), compared to the same groups without laser activation (control, dotted lines). The inventors have compared the therapeutic effect of EVs mTHPC, the liposomal formulation of mTHPC and free mTHPC in terms of tumor growth, 90 days after treatment. […] Thus, compared to the liposomes, the charged vesicles of active agents obtained according to the methods of the present invention can constitute a very advantageous alternative both of the point of view of the pharmacodynamics properties and the effectiveness of the treatment carried out. The liposomes are known for the vectorization of various biomolecules such as enzymes, hormones, antisense oligonucleotides, ribozymes, proteins or DNA peptides, cancer molecules (Farjadian et al 2018). […]

Question: Oc1cccc(-c2c3nc(c(-c4cccc(O)c4)c4ccc([nH]4)c(-c4cccc(O)c4)c4nc(c(-c5cccc(O)c5)c5ccc2[nH]5)CC4)C=C3)c1 [mTHPC, meta-tetra (hydroxyphenyl) chlorin] was tested. Which “percentage of tumors (growth 10 times higher criterion) at day 90” value did it give?
Answer: The value was 20%.

Source: patent publication US20220162537A1, “FLUID SYSTEM FOR PRODUCING EXTRACELLULAR VESICLES COMPRISING A THERAPEUTIC OR IMAGING AGENT AND METHOD THEREOF” (CENTRE NATIONAL DE LA RECHERCHE SCIENTIFIQUE, priority 2018, published 2022)
